Experimental data from ChEMBL document CHEMBL4483862, “Open-source discovery of chemical leads for next-generation chemoprotective antimalarials” (2018).

Tested on: Plasmodium berghei
Assay: Luciferase/luciferin-expressing antifolate-resistant parasites were used to infect a culture of HepG2 cells that were pre-incubated with compounds. Infected hepatocytes emit light due to the luciferase reaction. Assay results are presented as the percent inhibition of light emission compared to control. […]
Format: functional
Conditions: sporozoite; for IC90: read-out: LUCIFERASE INFECTION ASSAY - IC90
[1] = read-out: LUCIFERASE INFECTION ASSAY - IC50

| Structure (SMILES) | IC90 [µM] | further results |
| --- | --- | --- |
| CC(C)(C)OC(=O)N1CCc2nc(NC(=O)c3csc(-c4ccco4)n3)sc2C1 | > 10 | IC50 (PBLUC_HILL_SLOPE 10.5, PBLUC_R_SQUARED 0.574, read-out: LUCIFERASE INFECTION ASSAY - IC50): 9.17 µM |
| O=C(Nc1cccc(C(F)(F)F)c1)OCCSc1ccc([N+](=O)[O-])c2nonc12 | > 7.7 | IC50 (FFLUC_HILL_SLOPE 1.97, FFLUC_R_SQUARED 0.686, HEPG2TOX_HILL_SLOPE 15.6, HEPG2TOX_R_SQUARED 0.779, read-out: LUCIFERASE INFECTION ASSAY - IC50): > 7.7 µM |
| O=C1OC(CC(=O)c2csc3ccccc23)c2ccccc21 (stereo unspecified) | 8.63 | IC50 [1]: 6.16 µM |
| Cc1c(-c2cc(-c3ccc(Cl)cc3)nc3ccccc23)oc2ccc(F)cc2c1=O | > 10 | IC50 [1]: > 10 µM |
| Cc1cc(-c2ccccc2)nc(SCc2ccc(C#N)cc2)n1 | 5.95 | IC50 (HEPG2TOX_HILL_SLOPE 7.96, HEPG2TOX_R_SQUARED 0.286, PBLUC_HILL_SLOPE 151, PBLUC_R_SQUARED 0.106, read-out: LUCIFERASE INFECTION ASSAY - IC50): 5.87 µM |
| O=C(CN1C(=O)S/C(=C\c2ccco2)C1=O)c1ccc([N+](=O)[O-])cc1 | > 10 | IC50 (HEPG2TOX_HILL_SLOPE 0.122, HEPG2TOX_R_SQUARED 0.0589, read-out: LUCIFERASE INFECTION ASSAY - IC50): > 10 µM |
| CC1CCC(N(C)C(=O)C2CCN(S(=O)(=O)c3ccc4c(c3)CCC4)CC2)CC1 (stereo unspecified) | > 10 | IC50 (PBLUC_HILL_SLOPE 16.6, PBLUC_R_SQUARED 0.0251, read-out: LUCIFERASE INFECTION ASSAY - IC50): 9.82 µM |
| CNc1nc2cnc(Nc3cccc(C)c3)cc2n1-c1cccc(C(F)(F)F)c1 | > 10 | IC50 (HEPG2TOX_HILL_SLOPE 1.54, HEPG2TOX_R_SQUARED 0.691, PBLUC_HILL_SLOPE 2.02, PBLUC_R_SQUARED 0.694, read-out: LUCIFERASE INFECTION ASSAY - IC50): 4.3 µM |
| O=C(Nc1ncccc1O)c1ccc(-n2cnc3ccccc32)cc1 | 6.03 | IC50 (PBLUC_HILL_SLOPE 1.70, 2.04, PBLUC_R_SQUARED 0.693, 0.681, read-out: LUCIFERASE INFECTION ASSAY - IC50): 1.8 µM |
| CS(=O)(=O)C(C#N)=Cc1ccccc1OCc1c(Cl)cccc1Cl | > 8.63 | IC50 (FFLUC_HILL_SLOPE 9.87, FFLUC_R_SQUARED 0.717, read-out: LUCIFERASE INFECTION ASSAY - IC50): > 8.63 µM |
| Cc1c(C(=O)Nc2ccc(Oc3ccccc3)cc2)cnn1C | > 10 | IC50 (HEPG2TOX_HILL_SLOPE 1.34, HEPG2TOX_R_SQUARED 0.933, PBLUC_HILL_SLOPE 3.41, PBLUC_R_SQUARED 0.294, read-out: LUCIFERASE INFECTION ASSAY - IC50): 7.03 µM |
| COc1ccc(-c2nnc(SC(C)C(=O)NCCC3=CCCCC3)[nH]2)cc1 (stereo unspecified) | 0.379 | IC50 (HEPG2TOX_HILL_SLOPE 1.28, HEPG2TOX_R_SQUARED 0.906, PBLUC_HILL_SLOPE 22.1, PBLUC_R_SQUARED 0.622, read-out: LUCIFERASE INFECTION ASSAY - IC50): 0.343 µM |
| Cc1ccc(NC(=O)Cc2nc(-c3ccc4c(c3)OCO4)cs2)c(C)c1 | > 10 | IC50 (PBLUC_HILL_SLOPE 12.9, PBLUC_R_SQUARED 0.436, read-out: LUCIFERASE INFECTION ASSAY - IC50): 8.84 µM |
| O=C(CC1CCCC1)N1CCc2nc(NCc3cccc(Oc4ccccc4)c3)ncc2C1 | > 7.46 | IC50 (HEPG2TOX_HILL_SLOPE 6.79, HEPG2TOX_R_SQUARED 0.796, PBLUC_HILL_SLOPE 75.4, PBLUC_R_SQUARED 0.123, read-out: LUCIFERASE INFECTION ASSAY - IC50): 7.45 µM |
| CCOC(=O)c1c(C)[nH]c(-c2csc(/C(C#N)=C/c3ccc[nH]3)n2)c1C | > 10 | IC50 (FFLUC_HILL_SLOPE 1.13, FFLUC_R_SQUARED 0.248, HEPG2TOX_HILL_SLOPE 11.9, HEPG2TOX_R_SQUARED 0.816, PBLUC_HILL_SLOPE 50.7, PBLUC_R_SQUARED 0.357, read-out: LUCIFERASE INFECTION ASSAY - IC50): 9.63 µM |
| O=c1c(C(F)(F)F)cccn1Cc1csc(COc2ccc(Cl)cc2)n1 | > 10 | IC50 (HEPG2TOX_HILL_SLOPE 13.6, HEPG2TOX_R_SQUARED 0.877, PBLUC_HILL_SLOPE 2.65, PBLUC_R_SQUARED 0.537, read-out: LUCIFERASE INFECTION ASSAY - IC50): 7.31 µM |
| CN(C)C(CNc1ncnc2sc(-c3ccccc3)cc12)c1ccco1 (stereo unspecified) | > 10 | IC50 (PBLUC_HILL_SLOPE 12.3, PBLUC_R_SQUARED 0.199, read-out: LUCIFERASE INFECTION ASSAY - IC50): 9.76 µM |

| Structure (SMILES) | IC90 [µM] | further results |
| --- | --- | --- |
| N#C/C(=C\C=C\c1ccccc1[N+](=O)[O-])C(=O)NC1CCCCC1 | 4.14 | IC50 (HEPG2TOX_HILL_SLOPE 4.42, HEPG2TOX_R_SQUARED 0.954, PBLUC_HILL_SLOPE 12.2, PBLUC_R_SQUARED 0.458, read-out: LUCIFERASE INFECTION ASSAY - IC50): 3.46 µM |
| CCn1ccnc1C(=O)Nc1nc(-c2ccc3c(c2)OCCO3)cs1 | 1.92 | IC50 (HEPG2TOX_HILL_SLOPE 10.1, HEPG2TOX_R_SQUARED 0.135, PBLUC_HILL_SLOPE 182, PBLUC_R_SQUARED 0.438, read-out: LUCIFERASE INFECTION ASSAY - IC50): 1.89 µM |
| CCc1cc(-c2n[nH]cc2-c2ccc3c(c2)OCCO3)c(O)cc1OC | 1.59 | IC50 (HEPG2TOX_HILL_SLOPE 1.05, HEPG2TOX_R_SQUARED 0.928, PBLUC_HILL_SLOPE 1.82, PBLUC_R_SQUARED 0.694, read-out: LUCIFERASE INFECTION ASSAY - IC50): 0.474 µM |
| N/C(CC(=O)Nc1ccc(F)cc1F)=N\O | > 14.4 | IC50 [1]: > 14.4 µM |
| Clc1ccccc1/C=N/Nc1nc(-c2cc(-c3ccccc3)no2)cs1 | > 8.66 | IC50 (PBLUC_HILL_SLOPE 1.1, PBLUC_R_SQUARED 0.687, read-out: LUCIFERASE INFECTION ASSAY - IC50): 6.48 µM |
| N#Cc1ccc(NCCNc2nc3ccccc3s2)nc1 | 4.32 | IC50 (HEPG2TOX_HILL_SLOPE 2.81, HEPG2TOX_R_SQUARED 0.729, PBLUC_HILL_SLOPE 4.52, PBLUC_R_SQUARED 0.618, read-out: LUCIFERASE INFECTION ASSAY - IC50): 2.66 µM |
| O=C(Nc1ccccc1)c1ccc(CN2CCN(CCOc3ccccc3)CC2)cc1 | 1.96 | IC50 [1]: 0.646 µM |
| COc1ccccc1C(=O)c1cnc(Nc2cccc(Oc3ccccc3)c2)[nH]1 | 3.37 | IC50 (HEPG2TOX_HILL_SLOPE 2.29, HEPG2TOX_R_SQUARED 0.975, PBLUC_HILL_SLOPE 12.2, PBLUC_R_SQUARED 0.607, read-out: LUCIFERASE INFECTION ASSAY - IC50): 2.81 µM |
| CC(C)n1cc(-c2nc(C(=O)NNC(=O)c3ccccc3Cl)cs2)c(=O)n(Cc2ccccc2)c1=O | > 6.3 | IC50 [1]: > 6.3 µM |
| CCCCNC(=S)NN=C(c1ccccc1)c1ccccc1 | > 10 | IC50 [1]: > 10 µM |
| Cc1ccc(C(=O)Nc2ccnn2CC(C)C)cn1 | > 10 | IC50 [1]: > 10 µM |
| Cc1ncc(CO)c(/C=N/NC(=S)Nc2ccc(C(C)C)cc2)c1O | > 10 | IC50 (HEPG2TOX_HILL_SLOPE 0.0695, HEPG2TOX_R_SQUARED 0.0364, read-out: LUCIFERASE INFECTION ASSAY - IC50): > 10 µM |
| CCc1ccc(CN(C)C(C)C(=O)Nc2cc(S(=O)(=O)N(C)C)ccc2C)cc1 (stereo unspecified) | > 10 | IC50 [1]: 8.31 µM |
| C=CCN(c1cccc(C(F)(F)F)c1)S(=O)(=O)c1cc(C(=O)Nc2ccc3c(c2)CCC3)ccc1Cl | > 10 | IC50 [1]: > 10 µM |
| CC(C)Nc1ccc(Nc2ccccc2)cc1 | 3.79 | IC50 (HEPG2TOX_HILL_SLOPE 3.79, HEPG2TOX_R_SQUARED 0.984, PBLUC_HILL_SLOPE 20.8, PBLUC_R_SQUARED 0.712, read-out: LUCIFERASE INFECTION ASSAY - IC50): 3.41 µM |
| Cc1cc(C(C)(C)C)cc(C)c1N1C(=O)C=CC1=O | > 12.8 | IC50 (HEPG2TOX_HILL_SLOPE 11.2, HEPG2TOX_R_SQUARED 0.888, PBLUC_HILL_SLOPE 4.45, PBLUC_R_SQUARED 0.621, read-out: LUCIFERASE INFECTION ASSAY - IC50): 8.96 µM |
